Read-outs that look alike come from different tables or passages of the source.
Columns and labels:
SARS-CoV-2 3CL protease = SARS-CoV-2 3CL protease (Severe acute respiratory syndrome coronavirus 2, UniProt P0DTD1); assay: biochemical; details: 50% SARS-CoV-2 3CL protease inhibitory concentration, read-out: IC50
SARS-CoV-2 = assay: microbe, parasite or virus in culture; assay type: cell-based; details: Severe acute respiratory syndrome coronavirus 2, VeroE6/TMPRSS2, 72 h, 50% SARS-CoV-2 infected cell death inhibitory concentration, VeroE6/TMPRSS2 cells, 3 days culture

Structure (SMILES)	IC50 (SARS-CoV-2 3CL protease; given as class symbols) [nM]	EC50 (SARS-CoV-2; class symbols) [nM]	IC50 (SARS-CoV-2 3CL protease; RapidFire MS) [nM]	EC50 (SARS-CoV-2; CellTiter-Glo 2.0) [nM]
CNc1nc2cc(Cl)c(Nc3nc(=O)n(Cc4ncccn4)c(=O)n3Cc3cc(F)c(F)c(Cl)c3)cc2s1 [II-0297]	< 100	1000 to 10000	–	–
Cc1cncc(-n2c(=O)nc(Nc3ccc4nc(NCC(F)(F)F)sc4c3)n(Cc3ccc(F)c(C#N)c3)c2=O)c1 [II-0298]	< 100	1000 to 10000	–	–
Cc1cncc(-n2c(=O)nc(Nc3ccc4nn(CC(F)(F)F)cc4c3)n(Cc3cc(C#N)ccc3C)c2=O)c1 [II-0299]	–	–	3.3	202
Cn1cnc(Cn2c(=O)nc(Nc3cc4cn(CCO)nc4cc3Cl)n(Cc3cc(Cl)c(F)cc3F)c2=O)n1 [II-0300]	< 100	1000 to 10000	–	–
Cc1cncc(-n2c(=O)nc(Nc3cc4cn(C)nc4cc3Cl)n(Cc3cc(C#N)ccc3F)c2=O)c1 [II-0301]	< 100	< 1000	–	–
Cn1cnc(Cn2c(=O)nc(Nc3cc4cn(CC(C)(C)O)nc4cc3Cl)n(Cc3cc(Cl)c(F)cc3F)c2=O)n1 [II-0302]	< 100	1000 to 10000	–	–
Cc1cncc(-n2c(=O)nc(Nc3cc4sc(NC5CC5)nc4cc3Cl)n(Cc3ccc(F)c(C#N)c3)c2=O)c1 [II-0303]	< 100	< 1000	–	–
Cc1ccc(C#N)cc1Cn1c(Nc2ccc3nn(CC(F)(F)F)cc3c2)nc(=O)n(-c2cncc(Cl)c2)c1=O [II-0304]	–	–	4.5	213
Cn1cnc(Cn2c(=O)nc(Nc3cc4cn(CC(C)(C)O)nc4cc3Cl)n(Cc3cc(F)c(F)c(Cl)c3)c2=O)n1 [II-0305]	< 100	1000 to 10000	–	–
Cn1cnc(Cn2c(=O)nc(Nc3cc4sc(NC5CC5)nc4cc3Cl)n(Cc3cc(F)c(F)cc3F)c2=O)n1 [II-0306]	–	–	5.1	410
Cn1cnc(Cn2c(=O)nc(Nc3cc4cn(CCO)nc4cc3Cl)n(Cc3cc(F)c(F)c(Cl)c3)c2=O)n1 [II-0307]	< 100	1000 to 10000	–	–
Cn1cc2cc(Nc3nc(=O)n(-c4cncc5ccccc45)c(=O)n3Cc3cc(F)c(F)cc3F)c(Cl)cc2n1 [II-0308]	< 100	< 1000	–	–
Cn1cnc(Cn2c(=O)nc(Nc3cc4cn(CC(=O)OC(C)(C)C)nc4cc3Cl)n(Cc3cc(Cl)c(F)cc3F)c2=O)n1 [II-0309]	< 100	1000 to 10000	–	–
Cn1cnc(Cn2c(=O)nc(Nc3cc4cn(CC(=O)OC(C)(C)C)nc4cc3Cl)n(Cc3cc(F)c(F)c(Cl)c3)c2=O)n1 [II-0311]	< 100	1000 to 10000	–	–
Cc1cncc(-n2c(=O)nc(Nc3ccc4nn(CC(F)(F)F)cc4c3)n(Cc3cc(C#N)ccc3F)c2=O)c1 [II-0312]	< 100	< 1000	–	–
CNc1nc2ccc(Nc3nc(=O)n(-c4cncc(C)c4)c(=O)n3Cc3ccc(F)c(C#N)c3)cc2s1 [II-0313]	< 100	< 1000	–	–
CC(=O)Nc1nc2ccc(Nc3nc(=O)n(-c4cncc(C)c4)c(=O)n3Cc3ccc(F)c(C#N)c3)cc2s1 [II-0316]	< 100	1000 to 10000	–	–
CNc1nc2cc(Cl)c(Nc3nc(=O)n(-c4cncc(C)c4)c(=O)n3Cc3cc(F)c(F)c(F)c3)cc2s1 [II-0318]	< 100	< 1000	–	–
Cc1cncc(-n2c(=O)nc(Nc3ccc4nn(C(F)F)cc4c3)n(Cc3ccc(F)c(C#N)c3)c2=O)c1 [II-0320]	< 100	< 1000	–	–
N#Cc1cnc2[nH]c(=O)c(Cn3c(=O)nc(Nc4ccc5c(c4)CCO5)n(Cc4cc(F)c(F)c(F)c4)c3=O)cc2c1 [II-0322]	< 100	1000 to 10000	–	–
CNc1nc2ccc(Nc3nc(=O)n(-c4cncc(C)c4)c(=O)n3Cc3cc(F)c(F)c(F)c3)cc2s1 [II-0323]	< 100	< 1000	–	–
Cc1nc2cc(Cl)c(Nc3nc(=O)n(Cc4ncn(C)n4)c(=O)n3Cc3cc(F)c(F)cc3F)cc2o1 [II-0326]	< 100	1000 to 10000	–	–

Structure (SMILES)	IC50 (SARS-CoV-2 3CL protease; given as class symbols) [nM]	EC50 (SARS-CoV-2; class symbols) [nM]	IC50 (SARS-CoV-2 3CL protease; RapidFire MS) [nM]	EC50 (SARS-CoV-2; CellTiter-Glo 2.0) [nM]
CCNC(=O)Cn1c(=O)nc(Nc2cc3cn(C)nc3cc2Cl)n(Cc2cc(F)c(F)c(F)c2)c1=O [II-0329]	–	–	140	11500
Cn1cc2cc(Nc3nc(=O)n(CC(=O)NC4CCCCC4)c(=O)n3Cc3cc(F)c(F)c(F)c3)c(Cl)cc2n1 [II-0330]	–	–	3600	42200
Cc1cncc(-n2c(=O)nc(Nc3cc4cn(C)nc4cc3Cl)n(Cc3cc(Cl)ccc3C)c2=O)c1 [II-0332]	–	–	2	54
Cc1cncc(-n2c(=O)nc(Nc3cc4cn(C)nc4cc3Cl)n(Cc3cc(C#N)ccc3C(F)F)c2=O)c1 [II-0333]	< 100	< 1000	–	–
Cc1cncc(-n2c(=O)nc(Nc3cc4cn(C)nc4cc3Cl)n(Cc3cc(C#N)ccc3CF)c2=O)c1 [II-0334]	–	–	2.8	620
CCn1cc2cc(Nc3nc(=O)n(-c4cncc(C)c4)c(=O)n3Cc3cc(C#N)c(F)cc3C)ccc2n1 [II-0335]	–	–	3.2	241
CCNc1nc2cc(Cl)c(Nc3nc(=O)n(-c4cncc(C)c4)c(=O)n3Cc3ccc(F)c(C#N)c3)cc2s1 [II-0336]	< 100	< 1000	–	–
Cc1cncc(-n2c(=O)nc(Nc3cc4cn(CCO)nc4cc3Cl)n(Cc3cc(F)c(F)cc3F)c2=O)c1 [II-0337]	< 100	< 1000	–	–
CCNc1nc2cc(Cl)c(Nc3nc(=O)n(Cc4ncn(C)n4)c(=O)n3Cc3cc(F)c(F)cc3F)cc2s1 [II-0339]	< 100	< 1000	–	–
Cc1nc2cc(Cn3c(=O)nc(Nc4ccc5c(c4)CCO5)n(Cc4cc(F)c(F)c(F)c4)c3=O)c(=O)[nH]c2s1 [II-0341]	< 100	1000 to 10000	–	–
COc1ccc(Nc2nc(=O)n(Cc3cc4sccc4[nH]c3=O)c(=O)n2Cc2cc(F)c(F)c(F)c2)cc1 [II-0342]	< 100	1000 to 10000	–	–
COc1ccc(Nc2nc(=O)n(Cc3cc4c([nH]c3=O)CCC4)c(=O)n2Cc2cc(F)c(F)c(F)c2)cc1 [II-0343]	–	–	310	4140
Cc1nc(Cn2cc3cc(Nc4nc(=O)n(Cc5ccc[nH]c5=O)c(=O)n4Cc4cc(F)c(F)c(F)c4)c(Cl)cc3n2)no1 [II-0344]	< 100	1000 to 10000	–	–
Cc1cncc(-n2c(=O)nc(Nc3cc4cn(CC5CC5)nc4cc3Cl)n(Cc3ccc(F)c(C#N)c3)c2=O)c1 [II-0345]	< 100	< 1000	–	–
CNc1nc2cc(Cl)c(Nc3nc(=O)n(-c4cncc(C)c4)c(=O)n3Cc3cc(C#N)c(F)cc3C)cc2o1 [II-0346]	< 100	< 1000	–	–
Cc1ccc(C#N)cc1Cn1c(Nc2ccc3nn(C)cc3c2)nc(=O)n(-c2cncc(Cl)c2)c1=O [II-0347]	–	–	7	190
Cc1cc(Cn2cc3cc(Nc4nc(=O)n(Cc5ccc[nH]c5=O)c(=O)n4Cc4cc(F)c(F)c(F)c4)c(Cl)cc3n2)no1 [II-0348]	< 100	1000 to 10000	–	–
O=c1nc(Nc2cc3c(cc2Cl)nc2n3CCN2)n(Cc2cc(Cl)c(F)cc2F)c(=O)n1-c1cncc(Cl)c1 [II-0349]	< 100	1000 to 10000	–	–
Cc1cncc(-n2c(=O)nc(Nc3cc4c(cc3Cl)nc(C)n4C)n(Cc3ccc(F)c(C#N)c3)c2=O)c1 [II-0350]	< 100	1000 to 10000	–	–
Cc1cncc(-n2c(=O)nc(Nc3cc4cn(CCN5CCOCC5)nc4cc3Cl)n(Cc3cc(F)c(F)c(F)c3)c2=O)c1 [II-0351]	< 100	< 1000	–	–
Cn1cnc(Cn2c(=O)nc(Nc3cc4cn(CC5CC5)nc4cc3Cl)n(Cc3cc(F)c(F)cc3F)c2=O)n1 [II-0352]	< 100	< 1000	–	–
